Results: US20150344540A1, “NOVEL GLP-1 RECEPTOR AGONISTS WITH CHOLESTEROL EFFLUX ACTIVITY” (NOVO NORDISK A/S, priority 2012, published 2015)
Where two headings read alike, the source gives them in different places. Where a SMILES comes first, the peptide text is derived from it. [ ]: non-standard residue; d: D form. Aib = CC(C)(N)C(=O)O

How the values were obtained:
[1] = system: Mouse monocyte/macrophage cell line, RAW 264.7; assay: Cholesterol efflux assay (3H-cholesterol, macrophage cell line); format: cell-based; conditions: RAW 264.7, 4 hrs incubation, 0.1% human serum albumin; for 4 h Cholesterol Efflux Emax: ABCA1-mediated efflux; for EC50: read-out: 4 h Cholesterol Efflux EC50, ABCA1-mediated efflux (CPT-cAMP induced minus non-induced)
human GLP-1 receptor = human GLP-1 receptor (Homo sapiens, UniProt P43220); assay: Functional GLP-1 receptor assay, in vitro potency (CRE luciferase; whole cells); format: cell-based; conditions: BHK cells expressing human GLP-1 receptor
[2] = 0% HSA, read-out: GLP1R CRE luc 0% HSA EC50 Mean Value
[3] = GLP1R CRE luc 1% HSA EC50 Mean Value, 1% HSA

human GLP-1 receptor, sequence (P43220 24-463): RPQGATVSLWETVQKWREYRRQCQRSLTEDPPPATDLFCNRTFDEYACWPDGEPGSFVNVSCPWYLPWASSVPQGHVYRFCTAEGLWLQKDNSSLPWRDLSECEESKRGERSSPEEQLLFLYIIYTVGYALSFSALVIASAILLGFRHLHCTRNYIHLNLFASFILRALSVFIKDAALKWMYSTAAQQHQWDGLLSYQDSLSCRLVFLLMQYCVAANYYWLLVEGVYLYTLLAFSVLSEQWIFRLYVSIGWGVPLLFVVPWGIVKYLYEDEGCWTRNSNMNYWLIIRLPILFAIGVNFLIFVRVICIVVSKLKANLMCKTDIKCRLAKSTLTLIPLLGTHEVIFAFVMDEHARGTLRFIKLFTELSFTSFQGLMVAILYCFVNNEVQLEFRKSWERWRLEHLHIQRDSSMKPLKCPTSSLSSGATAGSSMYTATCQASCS

| Compound | 4 h Cholesterol Efflux Emax [1] | EC50 (human GLP-1 receptor; [2]) | EC50 (human GLP-1 receptor; [3]) | EC50 [1] |
| --- | --- | --- | --- | --- |
| CC[C@H](C)[C@H](NC(=O)[C@H](Cc1ccccc1)NC(=O)[C@H](CCC(=O)O)NC(=O)[C@H](CCCCN)NC(=O)[C@@H](NC(=O)[C@H](C)NC(=O)[C@H](CCC(=O)O)NC(=O)[C@H](CCC(=O)O)NC(=O)[C@H](CCC(=O)O)NC(=O)[C@H](CC(C)C)NC(=O)[C@H](Cc1ccc(O)cc1)NC(=O)[C@H](CO)NC(=O)[C@H](CO)NC(=O)[C@@H](NC(=O)[C@H](CC(=O)O)NC(=O)[C@H](CO)NC(=O)[C@@H](NC(=O)[C@H](Cc1ccccc1)NC(=O)[C@@H](NC(=O)CNC(=O)[C@H](CCC(=O)O)NC(=O)C(C)(C)NC(=O)[C@@H](N)Cc1c[nH]cn1)[C@@H](C)O)[C@@H](C)O)C(C)C)C(C)C)C(=O)N[C@@H](C)C(=O)N[C@@H](Cc1c[nH]c2ccccc12)C(=O)N[C@@H](CC(C)C)C(=O)N[C@H](C(=O)N[C@@H](CCC(=O)O)C(=O)N[C@@H](CCCCN)C(=O)N[C@H](C(=O)N[C@@H](CCCCN)C(=O)N[C@@H](CCC(=O)O)C(=O)N[C@@H](Cc1ccccc1)C(N)=O)C(C)C)C(C)C [Compound 134, [Aib8,Glu22,Glu23,Val25,Glu34,Lys35,Val36,Lys37]-GLP-1-(7-37)-peptidyl-Glu-Phe amide] (H-H[Aib]EGTFTSDVSSYLEEEAVKEFIAWLVEKVKEF-NH2) | 134% | 0.029 nM | 0.012 nM | – |
| H-HAEGTFTSDVSSYLEGQAAKEFIAWLVEKVGEFLEK-OH [Compound 128] | 112% | 0.041 nM | 0.013 nM | – |
| CC(C)C[C@H](NC(=O)[C@H](Cc1ccccc1)NC(=O)[C@H](CCC(=O)O)NC(=O)[C@H](CCCCN)NC(=O)C(C)(C)NC(=O)[C@H](CCCCN)NC(=O)[C@H](CCC(=O)O)NC(=O)[C@H](CC(C)C)NC(=O)[C@H](CC(C)C)NC(=O)[C@H](Cc1c[nH]c2ccccc12)NC(=O)[C@H](CCC(N)=O)NC(=O)[C@@H](NC(=O)[C@H](Cc1ccccc1)NC(=O)[C@H](CCC(=O)O)NC(=O)[C@H](CCCNC(=N)N)NC(=O)[C@H](C)NC(=O)[C@H](CCCNC(=N)N)NC(=O)[C@H](CCCCN)NC(=O)CNC(=O)[C@H](CC(=O)O)NC(=O)[C@H](CC(C)C)NC(=O)[C@H](Cc1ccc(O)cc1)NC(=O)[C@H](CCCCN)NC(=O)[C@H](CO)NC(=O)[C@H](Cc1ccc(O)cc1)NC(=O)[C@H](CC(=O)O)NC(=O)[C@H](CO)NC(=O)[C@@H](NC(=O)[C@H](Cc1ccccc1)NC(=O)[C@@H](NC(=O)CNC(=O)[C@H](CCC(N)=O)NC(=O)C(C)(C)NC(=O)[C@@H](N)Cc1c[nH]cn1)[C@@H](C)O)[C@@H](C)O)C(C)C)C(N)=O [Compound 25] (H-H[Aib]QGTFTSDYSKYLDGKRAREFVQWLLEK[Aib]KEFL-NH2) | 68% | 0.591 nM | 0.297 nM | – |
| CC[C@H](C)[C@H](NC(=O)[C@H](Cc1ccccc1)NC(=O)[C@H](CCC(=O)O)NC(=O)[C@H](CCCCN)NC(=O)[C@@H](NC(=O)[C@H](C)NC(=O)[C@H](CCC(=O)O)NC(=O)CNC(=O)[C@H](CCC(=O)O)NC(=O)[C@H](CC(C)C)NC(=O)[C@H](Cc1ccc(O)cc1)NC(=O)[C@H](CO)NC(=O)[C@H](CO)NC(=O)[C@@H](NC(=O)[C@H](CC(=O)O)NC(=O)[C@H](CO)NC(=O)[C@@H](NC(=O)[C@H](Cc1ccccc1)NC(=O)[C@@H](NC(=O)CNC(=O)[C@H](CCC(=O)O)NC(=O)C(C)(C)NC(=O)[C@@H](N)Cc1c[nH]cn1)[C@@H](C)O)[C@@H](C)O)C(C)C)C(C)C)C(=O)N[C@@H](C)C(=O)N[C@@H](Cc1c[nH]c2ccccc12)C(=O)N[C@@H](CC(C)C)C(=O)N[C@H](C(=O)N[C@@H](CCC(=O)O)C(=O)N[C@@H](CCCCN)C(=O)NC(C)(C)C(=O)N[C@@H](CCCCN)C(=O)N[C@@H](CCC(=O)O)C(=O)N[C@@H](Cc1ccccc1)C(=O)N[C@@H](CC(C)C)C(=O)N[C@@H](CCC(=O)O)C(=O)N[C@@H](CCCCN)C(N)=O)C(C)C [Compound 70, [Aib8,Glu23,Val25,Glu34,Lys35,Aib36,Lys37]-GLP-1-(7-37)-peptidyl-Glu-Phe-Leu-Glu-Lys amide] | 91% | 0.157 nM | – | – |
| CC[C@H](C)[C@H](NC(=O)[C@H](Cc1ccccc1)NC(=O)[C@H](CCC(=O)O)NC(=O)[C@H](CCCCN)NC(=O)[C@@H](NC(=O)[C@H](C)NC(=O)[C@H](CCC(=O)O)NC(=O)CNC(=O)[C@H](CCC(=O)O)NC(=O)[C@H](CC(C)C)NC(=O)[C@H](Cc1ccc(O)cc1)NC(=O)[C@H](CO)NC(=O)[C@H](CO)NC(=O)[C@@H](NC(=O)[C@H](CC(=O)O)NC(=O)[C@H](CO)NC(=O)[C@@H](NC(=O)[C@H](Cc1ccccc1)NC(=O)[C@@H](NC(=O)CNC(=O)[C@H](CCC(=O)O)NC(=O)C(C)(C)NC(=O)[C@@H](N)Cc1c[nH]cn1)[C@@H](C)O)[C@@H](C)O)C(C)C)C(C)C)C(=O)N[C@@H](C)C(=O)N[C@@H](Cc1c[nH]c2ccccc12)C(=O)N[C@@H](CC(C)C)C(=O)N[C@H](C(=O)N[C@@H](CCC(=O)O)C(=O)N[C@@H](CCCCN)C(=O)N[C@@H](CC(C)C)C(=O)N[C@@H](CCCCN)C(=O)N[C@@H](CCC(=O)O)C(=O)N[C@@H](CC(C)C)C(=O)N[C@H](C(N)=O)C(C)C)C(C)C [Compound 20, [Aib8,Glu23,Val25,Glu34,Lys35,Leu36,Lys37]-GLP-1-(7-37)-peptidyl-Glu-Leu-Val amide] (H-H[Aib]EGTFTSDVSSYLEGEAVKEFIAWLVEKLKELV-NH2; N-terminus assumed) | 102% | – | – | 560 nM |
| CC[C@H](C)[C@H](NC(=O)[C@H](Cc1ccccc1)NC(=O)[C@H](CCC(=O)O)NC(=O)[C@H](CCCCN)NC(=O)[C@@H](NC(=O)[C@H](C)NC(=O)[C@H](CCC(=O)O)NC(=O)CNC(=O)[C@H](CCC(=O)O)NC(=O)[C@H](CC(C)C)NC(=O)[C@H](Cc1ccc(O)cc1)NC(=O)[C@H](CO)NC(=O)[C@H](CO)NC(=O)[C@@H](NC(=O)[C@H](CC(=O)O)NC(=O)[C@H](CO)NC(=O)[C@@H](NC(=O)[C@H](Cc1ccccc1)NC(=O)[C@@H](NC(=O)CNC(=O)[C@H](CCC(=O)O)NC(=O)C(C)(C)NC(=O)[C@@H](N)Cc1c[nH]cn1)[C@@H](C)O)[C@@H](C)O)C(C)C)C(C)C)C(=O)N[C@@H](C)C(=O)N[C@@H](Cc1c[nH]c2ccccc12)C(=O)N[C@@H](CC(C)C)C(=O)N[C@H](C(=O)N[C@@H](CCC(=O)O)C(=O)N[C@@H](CCCCN)C(=O)NC(C)(C)C(=O)N[C@@H](CCCCN)C(=O)N[C@@H](CCC(=O)O)C(=O)N[C@@H](Cc1ccccc1)C(=O)N[C@@H](CC(C)C)C(=O)N[C@@H](CCC(=O)O)C(=O)N[C@@H](CCCCN)C(=O)N[C@H](C(=O)O)C(C)C)C(C)C [Compound 98, [Aib8,Glu23,Val25,Glu34,Lys35,Aib36,Lys37]-GLP-1-(7-37)-peptidyl-Glu-Phe-Leu-Glu-Lys-Val] | 132% | – | – | 430 nM |
